According to patent publication US9802960B2 (MILLENNIUM PHARMACEUTICALS, INC., priority 2014, dated 2017):

Biological target: Human VPS34 (Homo sapiens (Human), UniProt Q8NEB9)
Test: Human VPS34 enzyme assay (Adapta TR-FRET)
Format: biochemical
Conditions: IC50 range class

Human VPS34, sequence (Q8NEB9 whole entry): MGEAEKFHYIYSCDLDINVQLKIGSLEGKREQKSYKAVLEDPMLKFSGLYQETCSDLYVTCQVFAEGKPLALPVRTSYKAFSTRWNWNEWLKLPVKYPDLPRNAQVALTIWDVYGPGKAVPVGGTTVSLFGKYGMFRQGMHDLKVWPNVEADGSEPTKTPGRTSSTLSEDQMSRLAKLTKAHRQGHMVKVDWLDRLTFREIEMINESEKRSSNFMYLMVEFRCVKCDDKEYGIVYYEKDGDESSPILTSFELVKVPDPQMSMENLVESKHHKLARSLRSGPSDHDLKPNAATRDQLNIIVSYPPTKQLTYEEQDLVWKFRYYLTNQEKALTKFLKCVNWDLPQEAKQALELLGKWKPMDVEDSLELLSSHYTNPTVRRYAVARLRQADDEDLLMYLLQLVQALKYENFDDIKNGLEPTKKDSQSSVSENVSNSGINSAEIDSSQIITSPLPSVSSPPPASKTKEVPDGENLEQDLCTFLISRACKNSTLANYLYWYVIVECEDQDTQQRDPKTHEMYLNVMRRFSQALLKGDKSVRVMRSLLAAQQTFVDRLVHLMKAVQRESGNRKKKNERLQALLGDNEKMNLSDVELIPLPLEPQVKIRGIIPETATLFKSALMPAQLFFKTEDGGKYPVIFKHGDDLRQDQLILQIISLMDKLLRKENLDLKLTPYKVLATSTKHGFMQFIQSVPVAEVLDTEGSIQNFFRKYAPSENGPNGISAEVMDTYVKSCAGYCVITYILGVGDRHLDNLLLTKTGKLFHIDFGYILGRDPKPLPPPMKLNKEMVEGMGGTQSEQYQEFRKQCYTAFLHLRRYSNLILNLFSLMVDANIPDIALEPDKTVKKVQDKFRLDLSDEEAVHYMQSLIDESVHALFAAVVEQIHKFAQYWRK

IC50, 10 to 50 nM:
CC(=O)Nc1cc(-c2cnc(C)c(NS(=O)(=O)c3nccn3C)c2)ccn1 [Compound I-92, N-(6-methyl-5-{[(1-methyl-1H-imidazol-2-yl)sulfonyl]amino}-3,4′-bipyridin-2′-yl)acetamide]

Same assay, conditions: compound concentration 1.11 μM; read-out: Percent Inhibition

Inhibition at 1.11 µM, 98%:
CC(=O)Nc1cc(-c2cnc(C)c(NS(=O)(=O)c3ccc(Cl)cc3F)c2)ccn1 [Compound I-94, N-(5-{[(4-chloro-2-fluorophenyl)sulfonyl]amino}-6-methyl-3,4′-bipyridin-2′-yl)acetamide]

Inhibition at 1.11 µM, > 99%:
CC(=O)Nc1cc(-c2ccc(S(=O)(=O)Nc3cc(-c4ccnc(NC(C)=O)c4)cnc3C)c(F)c2)ccn1 [Compound I-86, N-(4-{4-[(2′-acetamido-6-methyl-3,4′-bipyridin-5-yl)sulfamoyl]-3-fluorophenyl}pyridin-2-yl)acetamide]
CC(=O)Nc1cc(-c2cnc(N)c(S(=O)(=O)N3CCCC3)c2)ccn1 [Compound I-87, N-[6-amino-5-(pyrrolidin-1-ylsulfonyl)-3,4′-bipyridin-2′-yl]acetamide]
CC(=O)Nc1cc(-c2cnc(C)c(N3CCCS3(=O)=O)c2)ccn1 [Compound I-88, N-[5-(1,1-dioxidoisothiazolidin-2-yl)-6-methyl-3,4′-bipyridin-2′-yl]acetamide]
CNS(=O)(=O)c1cc(-c2ccnc(NC(C)=O)c2)cnc1N [Compound I-89, N-[6-amino-5-(methylsulfamoyl)-3,4′-bipyridin-2′-yl]acetamide]
CC(=O)Nc1cc(-c2cnc(C)c(NS(=O)(=O)c3ccc(C(F)(F)F)cc3)c2)ccn1 [Compound I-90, N-[6-methyl-5-({[4-(trifluoromethyl)phenyl]sulfonyl}amino)-3,4′-bipyridin-2′-yl]acetamide]
CC(=O)Nc1cc(-c2cnc(N)c(C(=O)Nc3cccnc3)c2)ccn1 [Compound I-91, 2′-acetamido-6-amino-N-(pyridin-3-yl)-3,4′-bipyridine-5-carboxamide]
CC(=O)Nc1cc(-c2cnc(C)c(NS(=O)(=O)c3nccn3C)c2)ccn1 [Compound I-92, N-(6-methyl-5-{[(1-methyl-1H-imidazol-2-yl)sulfonyl]amino}-3,4′-bipyridin-2′-yl)acetamide]
CC(=O)Nc1cc(-c2cnc(N)c(S(C)(=O)=O)c2)ccn1 [Compound I-95, N-[6-amino-5-(methylsulfonyl)-3,4′-bipyridin-2′-yl]acetamide]
CC(=O)Nc1cc(-c2cnc(C)c(N(C)S(C)(=O)=O)c2)ccn1 [Compound I-96, N-{6-methyl-5-[methyl(methylsulfonyl)amino]-3,4′-bipyridin-2′-yl}acetamide]
CC(=O)Nc1cc(-c2cnc(N)c(S(=O)(=O)Nc3cccc(Cl)c3)c2)ccn1 [Compound I-97, N-{6-amino-5-[(3-chlorophenyl)sulfamoyl]-3,4′-bipyridin-2′-yl}acetamide]
CC(=O)Nc1cc(-c2cnc(N)c(S(=O)(=O)Nc3ccc4ccccc4c3)c2)ccn1 [Compound I-98, N-[6-amino-5-(2-naphthylsulfamoyl)-3,4′-bipyridin-2′-yl]acetamide]
CC(=O)Nc1cc(-c2cnc(N)c(S(=O)(=O)Cc3ccc(Cl)cc3)c2)ccn1 [Compound I-99, N-{6-amino-5-[(4-chlorobenzyl)sulfonyl]-3,4′-bipyridin-2′-yl}acetamide]
CNc1ncc(-c2ccnc(NC(C)=O)c2)cc1S(=O)(=O)Nc1ccccc1 [Compound I-100, N-[6-(methylamino)-5-(phenylsulfamoyl)-3,4′-bipyridin-2′-yl]acetamide]
CC(=O)Nc1cc(-c2cnc(N)c(S(=O)(=O)NC3CCCCC3)c2)ccn1 [Compound I-101, N-[6-amino-5-(cyclohexylsulfamoyl)-3,4′-bipyridin-2′-yl]acetamide]
CC(=O)Nc1cc(-c2cncc(NS(=O)(=O)c3ccc(F)cc3F)c2C)ccn1 [Compound I-102, N-(5-{[(2,4-difluorophenyl)sulfonyl]amino}-4-methyl-3,4′-bipyridin-2′-yl)acetamide]
CC(=O)Nc1cc(-c2cnc3[nH]cc(S(=O)(=O)N4CCN(C)CC4)c3c2)ccn1 [Compound I-103, N-(4-{3-[(4-methylpiperazin-1-yl)sulfonyl]-1H-pyrrolo[2,3-b]pyridin-5-yl}pyridin-2-yl)acetamide]
COc1ncc(-c2ccnc(NC(C)=O)c2)cc1NS(=O)(=O)c1ccc(F)cc1F [Compound I-104, N-(5-{[(2,4-difluorophenyl)sulfonyl]amino}-6-methoxy-3,4′-bipyridin-2′-yl)acetamide]
CC(=O)Nc1cc(-c2cnc3cn(S(=O)(=O)C4CC4)nc3c2)ccn1 [Compound I-105, N-{4-[2-(cyclopropylsulfonyl)-2H-pyrazolo[4,3-b]pyridin-6-yl]pyridin-2-yl}acetamide]
COc1ncc(-c2ccnc(NC(C)=O)c2)cc1S(=O)(=O)Nc1ccc(F)cc1F [Compound I-107, N-{5-[(2,4-difluorophenyl)sulfamoyl]-6-methoxy-3,4′-bipyridin-2′-yl}acetamide]
CC(=O)Nc1cc(-c2cnc(N)c(S(=O)(=O)NCC3CC3)c2)ccn1 [Compound I-108, N-{6-amino-5-[(cyclopropylmethyl)sulfamoyl]-3,4′-bipyridin-2′-yl}acetamide]
CC(=O)Nc1cc(-c2cnc(C)c(NS(=O)(=O)c3ccccc3Cl)c2)ccn1 [Compound I-109, N-(5-{[(2-chlorophenyl)sulfonyl]amino}-6-methyl-3,4′-bipyridin-2′-yl)acetamide]
CC(=O)Nc1cc(-c2cnc(N)c(S(=O)(=O)N(C)CC3CC3)c2)ccn1 [Compound I-110, N-{6-amino-5-[(cyclopropylmethyl)(methyl)sulfamoyl]-3,4′-bipyridin-2′-yl}acetamide]
CC(=O)Nc1cc(-c2cnc(C)c(NS(=O)(=O)c3cc(Cl)ccc3Cl)c2)ccn1 [Compound I-111, N-(5-{[(2,5-dichlorophenyl)sulfonyl]amino}-6-methyl-3,4′-bipyridin-2′-yl)acetamide]
CC(=O)Nc1cc(-c2cnc(N(C)C)c(C(=O)Nc3ccc(F)cc3F)c2)ccn1 [Compound I-112, 2′-acetamido-N-(2,4-difluorophenyl)-6-(dimethylamino)-3,4′-bipyridine-5-carboxamide]
CC(=O)Nc1cc(-c2cnc(C)c(NS(=O)(=O)c3ccc(OC(F)(F)F)cc3Cl)c2)ccn1 [Compound I-113, N-[5-({[2-chloro-4-(trifluoromethoxy)phenyl]sulfonyl}amino)-6-methyl-3,4′-bipyridin-2′-yl]acetamide]
CC(=O)Nc1cc(-c2cnc(C)c(NS(=O)(=O)C3CC3)c2)ccn1 [Compound I-114, N-{5-[(cyclopropylsulfonyl)amino]-6-methyl-3,4′-bipyridin-2′-yl}acetamide]
O=C(Nc1cc(-c2cnc3[nH]ncc3c2)ccn1)C1CC1 [Compound I-117, N-[4-(1H-pyrazolo[3,4-b]pyridin-5-yl)pyridin-2-yl]cyclopropanecarboxamide]
CC(=O)Nc1cc(-c2cncc(S(=O)(=O)N3CCC(F)(F)C3)c2)ccn1 [Compound I-118, N-{5-[(3,3-difluoropyrrolidin-1-yl)sulfonyl]-3,4′-bipyridin-2′-yl}acetamide]
CC(=O)Nc1cc(-c2cnc(N)c(S(=O)(=O)N(C)C)c2)ccn1 [Compound I-119, N-[6-amino-5-(dimethylsulfamoyl)-3,4′-bipyridin-2′-yl]acetamide]
CCN(CC)S(=O)(=O)c1cncc(-c2ccnc(NC(C)=O)c2)c1 [Compound I-120, N-[5-(diethylsulfamoyl)-3,4′-bipyridin-2′-yl]acetamide]
CC(=O)Nc1cc(-c2cnc(N)c(C(=O)Nc3cc(C)cnn3)c2)ccn1 [Compound I-121, 2′-acetamido-6-amino-N-(5-methylpyridazin-3-yl)-3,4′-bipyridine-5-carboxamide]
CC(=O)Nc1cc(-c2cnc(N)c(S(=O)(=O)O)c2)ccn1 [Compound I-122, 2′-acetamido-6-amino-3,4′-bipyridine-5-sulfonic acid]
COc1cccc(S(=O)(=O)Nc2cc(-c3ccnc(NC(C)=O)c3)cnc2C)c1 [Compound I-123]
CC(=O)Nc1cc(-c2cnc(N)c(C(=O)N3Cc4ccccc4C3)c2)ccn1 [Compound I-125, N-[6-amino-5-(1,3-dihydro-2H-isoindoI-2-ylcarbonyl)-3,4′-bipyridin-2′-yl]acetamide]
CC(=O)Nc1cc(-c2cnc(N)c(S(=O)(=O)CCc3ccccc3)c2)ccn1 [Compound I-126, N-{6-amino-5-[(2-phenylethyl)sulfonyl]-3,4′-bipyridin-2′-yl}acetamide]
COc1ncc(-c2ccnc(NC(C)=O)c2)cc1C(=O)N(C)C [Compound I-127, 2′-acetamido-6-methoxy-N,N-dimethyl-3,4′-bipyridine-5-carboxamide]

Inhibition at 1.11 µM, 86%:
CC(=O)Nc1cc(-c2cnc3ccn(CC4CC4)c3c2)ccn1 [Compound I-93]

Inhibition at 1.11 µM, 68%:
CC(=O)Nc1cc(-c2cnc(C)c(NC(=O)c3ccc(F)cc3F)c2)ccn1 [Compound I-115, N-(2′-acetamido-6-methyl-3,4′-bipyridin-5-yl)-2,4-difluorobenzamide]
CC(=O)Nc1cc(-c2cnc3cn[nH]c3c2)ccn1 [Compound I-116, N-[4-(1H-pyrazolo[4,3-b]pyridin-6-yl)pyridin-2-yl]acetamide]

Inhibition at 1.11 µM, 64%:
CC(=O)Nc1cc(-c2cncc(NC(=O)Cc3ccccc3)c2)ccn1 [Compound I-106, N-(2′-acetamido-3,4′-bipyridin-5-yl)-2-phenylacetamide]

Inhibition at 1.11 µM, 90%:
CC(=O)Nc1cc(-c2cnc3[nH]cc(CN(C)C)c3c2)ccn1 [Compound I-85]

Inhibition at 1.11 µM, 91%:
CCN(CC)S(=O)(=O)c1cc(-c2ccnc(NC(C)=O)c2)cnc1N [Compound I-124, N-[6-amino-5-(diethylsulfamoyl)-3,4′-bipyridin-2′-yl]acetamide]
